Experiments:
[1] = target: Opioid receptor (Rattus norvegicus, UniProt P33533+P34975+P33535); experiment: 50% Inhibition of stereospecific [3H]-naltrexone (10e-9 M) binding towards opiate receptor in rat brain homogenate; format: tissue-based
[2] = system: Mus musculus; experiment: Analgesic activity in mice after subcutaneous administration in tail-flicking assay; activity value ranges from 3.0 - 5.4; format: functional; conditions: sc
[3] = system: Mus musculus; experiment: Analgesic activity in mice after oral administration in writhing assay; 13.71-42.00; format: functional
[4] = system: Mus musculus; experiment: Analgesic activity in mice after subcutaneous administration in writhing assay; 1.21-3.91; format: functional; conditions: sc
[5] = species: Mus musculus; experiment: animal or person; conditions: sc
Description: Analgesic activity in mice after subcutaneous administration in writhing assay; 0.26-0.83

[6] = system: Mus musculus; experiment: Analgesic activity in mice after oral administration in writhing assay; 0.70-2.80; format: functional
[7] = system: Mus musculus; experiment: Analgesic activity in mice after subcutaneous administration in writhing assay; 0.06-0.22; format: functional; conditions: sc
[8] = system: Mus musculus; experiment: Analgesic activity in mice after oral administration in tail-flicking assay; 7.22-10.25; format: functional

Compound: CC(=O)c1ccc2c(c1)[C@@]13CCCC[C@H]1[C@@H](C2)N(C)CC3
- IC50 [1]: 210 nM
- ED50 [2]: 4 mg/kg

Compound: COc1ccc2c3c1O[C@H]1[C@@H](O)C=C[C@H]4[C@@H](C2)N(C)CC[C@@]341.COc1ccc2c3c1O[C@H]1[C@@H](O)C=C[C@H]4[C@@H](C2)N(C)CC[C@@]341.O.O=P(O)(O)O.O=P(O)(O)O [CODEINE PHOSPHATE]
- ED50 [3]: 24 mg/kg
- ED50 [4]: 2.3 mg/kg

Compound: CC(=O)c1ccc2c(c1)C[C@@H]1[C@@H]3CCCC[C@]23CCN1C
- IC50 [1]: 13000 nM

Compound: CC(=O)c1ccc2c(c1)[C@@]13CCCC[C@H]1[C@@H](C2)N(CC1CC1)CC3.Cl
- IC50 [1]: 70 nM

Compound: CN1CC[C@]23c4c5ccc(O)c4O[C@H]2[C@@H](O)C=C[C@H]3[C@H]1C5 [MORPHINE]
- ED50 [5]: 0.46 mg/kg

Compound: CN1CC[C@]23CCCC[C@H]2[C@H]1Cc1ccc(O)cc13 [LEVORPHANOL]
- ED50 [6]: 1.4 mg/kg
- ED50 [7]: 0.11 mg/kg
- IC50 [1]: 0.004 nM
- ED50 [8]: 8.5 mg/kg

Compound: CC(O)c1ccc2c(c1)[C@@]13CCCC[C@H]1[C@@H](C2)N(C)CC3.Cl (some centres not stated)
- IC50 [1]: 14 nM
